Measurements as given in patent US5300629A, “Bactericidal and/or bacteriostatic peptides isolated from hemolymph of honeybees” (Plant Genetic Systems, N.V., priority 1987, dated 1994).
Where a SMILES comes first, the peptide text is derived from it.

Key:
Format in all cases: cell-based
[1] = tested on: Listeria monocytogenes B5; assay: Inhibition zone assay; design: key: --: "-" means that no inhibition has been found; settings: L 5 ug
[2] = tested on: Pseudomonas solanacearum ATCC 11696; design: key: --: "-" means that no inhibition has been found; settings: * synthetic ApidIa and heattreated immune lymph instead of Bee6 and native immune lymph
[3] = tested on: Agrobacterium tumefaciens ATCC 143; assay: Inhibition zone assay; design: key: --: "-" means that no inhibition has been found
[4] = tested on: Janthinobacterium lividum Sneath HB; assay: Inhibition zone assay; design: key: --: "-" means that no inhibition has been found; settings: I and B 10 ul, L 5 ug
Clostridia = tested on: Clostridia
Salmonella Newport CD 94 = assay: Inhibition zone assay; design: key: --: "-" means that no inhibition has been found; settings: I 10 ul
[5] = tested on: Flavobacterium capsulatum ATCC 14666; assay: Inhibition zone assay; design: key: --: "-" means that no inhibition has been found
[6] = tested on: Azospirillum brasilliense ATCC 29145; assay: Inhibition zone assay; design: key: --: "-" means that no inhibition has been found
[7] = tested on: Rhizobium meliloti ZB 314; assay: Inhibition zone assay; settings: I and B 10 ul, L 5 ug
[8] = tested on: Agrobacterium tumefaciens DSM 3129; assay: Inhibition zone assay; settings: I and B 10 ul, L 5 ug
[9] = tested on: Xanthomonas campestris pv. campestris A 902; assay: Inhibition zone assay; design: key: --: "-" means that no inhibition has been found; settings: * synthetic ApidIa and heattreated immune lymph instead of Bee6 and native immune lymph
[10] = tested on: Pseudomonas fluorescens ATCC 13525; assay: Inhibition zone assay; design: key: --: "-" means that no inhibition has been found
[11] = tested on: Bordetella bronchiseptica ATCC 19395; assay: Inhibition zone assay; design: key: --: "-" means that no inhibition has been found; settings: I and B 10 ul, L 5 ug
[12] = tested on: Agrobacterium rhizogenes ATCC 11325; assay: Inhibition zone assay; design: key: --: "-" means that no inhibition has been found; settings: I and B 10 ul, L 5 ug
[13] = tested on: Erwinia carotovora var. carotovora NCPPB 312; assay: Inhibition zone assay; design: key: --: "-" means that no inhibition has been found
Proteus mirabilis AU 87 = assay: Inhibition zone assay; design: key: --: "-" means that no inhibition has been found; settings: I and B 10 ul
[14] = tested on: Staphylococcus aureus STA 1; assay: Inhibition zone assay; design: key: --: "-" means that no inhibition has been found; settings: I 10 ul
[15] = tested on: Xanthomonas campestris pv. graminis NCPPB 2700; assay: Inhibition zone assay; design: key: --: "-" means that no inhibition has been found; settings: I and B 10 ul, L 5 ug
[16] = tested on: Bacillus thuringiensis DSM 3131; assay: Inhibition zone assay; design: key: --: "-" means that no inhibition has been found; settings: I and B 10 ul, L 5 ug
[17] = tested on: Salmonella typhimurium NCTC 74; assay: Inhibition zone assay; design: key: --: "-" means that no inhibition has been found; settings: I and B 10 ul
S. cerevisiae = assay: Growth-inhibition zone assay, first screening
Protocol: (§1) Whole lymph or purified components, resuspended in PBS to a final volume equal to the starting material (heated lymph), was applied in 3 mm wells on agar plates seeded with the test organisms. Antibacterial activity was determined by measuring the growth-inhibition zones (in mm).

D. hansenii = assay: Growth-inhibition zone assay, first screening
Protocol: as §1

[18] = tested on: Klebsiella aerogenes 1961 E; assay: Inhibition zone assay; design: key: --: "-" means that no inhibition has been found; settings: I and B 10 ul, L 5 ug
[19] = tested on: Erwinia salicis NCPPB 2530; assay: Inhibition zone assay; design: key: --: "-" means that no inhibition has been found; settings: I and B 10 ul, L 5 ug
[20] = tested on: Pseudomonas aeruginosa ATCC 7700; assay: Inhibition zone assay; design: key: --: "-" means that no inhibition has been found
E. coli NCTC 9001 = assay: Killing assay, growth inhibition in liquid medium; settings: purified factors in PBS (7.5% LPG), 10^3 cells, optical density at 630 nm
Protocol: Bacterial development was monitored by measuring the optical densities and by plate counts. […] The purified factors resuspended in PBS (7.5% LPG) (FIG. 4A, 4B, 4C, 4D) were inoculated with 10^4 cells (C) or 10^3 cells (A, B and D) . Bacterial development was calculated by measuring the optical densities at 630 nm.

[21] = tested on: Citrobacter freundii ATCC 8090; assay: Inhibition zone assay; design: key: --: "-" means that no inhibition has been found
Shigella flexneri CP 87 = assay: Inhibition zone assay; design: key: --: "-" means that no inhibition has been found; settings: I 10 ul
Protocol: as §1

Shigella sonnei CQ26 = assay: Inhibition zone assay; design: key: --: "-" means that no inhibition has been found; settings: I and B 10 ul
Protocol: as §1

[22] = tested on: Shigella flexneri NCTC 9950; assay: Inhibition zone assay; design: key: --: "-" means that no inhibition has been found; settings: I and B 10 ul
Protocol: as §1

[23] = tested on: Corynebacterium michiganense pv. michiganense NCPPB 1573; assay: Inhibition zone assay; design: key: --: "-" means that no inhibition has been found
Protocol: as §1

[24] = tested on: Clostridium difficile Bart 1924; assay: Inhibition zone assay; design: key: --: "-" means that no inhibition has been found; settings: I 10 ul
Protocol: as §1

[25] = tested on: Rhizobium leguminosarum 720; assay: Inhibition zone assay; design: key: --: "-" means that no inhibition has been found
[26] = tested on: Acinetobacter calcoaceticus MON 108; assay: Inhibition zone assay; design: key: --: "-" means that no inhibition has been found
[27] = tested on: Pseudomonas syringae pv. tabaci NCPPB 1237; assay: Inhibition zone assay; design: key: --: "-" means that no inhibition has been found; settings: * synthetic ApidIa and heattreated immune lymph instead of Bee6 and native immune lymph

## CC[C@H](C)[C@H](NC(=O)[C@H](CCCCN)NC(=O)[C@@H]1CCCN1C(=O)[C@H](CC(N)=O)NC(=O)[C@H](Cc1ccccc1)NC(=O)[C@@H]1CCCN1C(=O)CNC(=O)[C@H](CCC(N)=O)NC(=O)CNC(=O)[C@@H]1CCCN1C(=O)[C@H](Cc1ccccc1)NC(=O)[C@@H](NC(=O)[C@@H]1CCCN1C(=O)[C@H](Cc1ccccc1)NC(=O)[C@@H]1CCCN1C(=O)[C@H](CCCNC(=N)N)NC(=O)[C@H](CCCNC(=N)N)NC(=O)CNC(=O)[C@@H]1CCCN1C(=O)[C@H](CCC(N)=O)NC(=O)[C@@H]1CCCN1C(=O)[C@@H](NC(=O)[C@H](CC(N)=O)NC(=O)[C@@H]1CCCN1C(=O)[C@H](CC(C)C)NC(=O)[C@@H]1CCCN1C(=O)[C@@H](NC(=O)[C@@H](N)Cc1ccc(O)cc1)C(C)C)C(C)C)[C@@H](C)O)C(=O)N[C@@H](CCCCN)C(=O)N[C@@H](Cc1c[nH]c2ccccc12)C(=O)N1CCC[C@H]1C(=O)N[C@@H](CCC(N)=O)C(=O)NCC(=O)N[C@@H](Cc1ccc(O)cc1)C(=O)O [bee 9] (H-YVPLPNVPQPGRRPFPTFPGQGPFNPKIKWPQGY-OH)
[1]
  diameter of growth-inhibition zone: --
[2]
  diameter of growth-inhibition zone: --
[3]
  diameter of growth-inhibition zone: --
[4]
  diameter of growth-inhibition zone: --
Clostridia
  susceptibility, in words: resistant
Salmonella Newport CD 94
  diameter of growth-inhibition zone: --
[5]
  diameter of growth-inhibition zone: --
[6]
  diameter of growth-inhibition zone: --
[7]
  diameter of growth-inhibition zone: 4 mm
[8]
  diameter of growth-inhibition zone: 4 mm
[9]
  diameter of growth-inhibition zone: --
[10]
  diameter of growth-inhibition zone: --
[11]
  diameter of growth-inhibition zone: --
[12]
  diameter of growth-inhibition zone: --
[13]
  diameter of growth-inhibition zone: --
Proteus mirabilis AU 87
  diameter of growth-inhibition zone: --
[14]
  diameter of growth-inhibition zone: --
[15]
  diameter of growth-inhibition zone: --
[16]
  diameter of growth-inhibition zone: --
[17]
  diameter of growth-inhibition zone: --
S. cerevisiae
  susceptibility of eucaryote strain: resistant
D. hansenii
  susceptibility of eucaryote strain: resistant
[18]
  diameter of growth-inhibition zone: --
[19]
  diameter of growth-inhibition zone: --
[20]
  diameter of growth-inhibition zone: --
E. coli NCTC 9001
  activity, growth inhibition in liquid medium: neither susceptible
[21]
  diameter of growth-inhibition zone: --
Shigella flexneri CP 87
  diameter of growth-inhibition zone: --
Shigella sonnei CQ26
  diameter of growth-inhibition zone: --
[22]
  diameter of growth-inhibition zone: --
[23]
  diameter of growth-inhibition zone: --
[24]
  diameter of growth-inhibition zone: --
[25]
  diameter of growth-inhibition zone: --
[26]
  diameter of growth-inhibition zone: --
[27]
  diameter of growth-inhibition zone: --
